{
  "source": "patent US9890176B2",
  "about": "“Mannose derivatives for treating bacterial infections” (Vertex Pharmaceuticals Incorporated, priority 2013, dated 2018)",
  "data": [
    {"tested_on": "bacterial strain LF82 binding to the glycoprotein BSA-(Mannose)3", "experiment": "Bacterial Binding Assay (BBA)", "assay_type": "cell-based, Escherichia coli", "details": "read-out: Bacterial Binding Assay IC50", "method_in_brief": "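Luciferase-tagged E. coli LF82 grown overnight at 37° C without shaking, then added at 2×10^8 bacteria/mL (10^7 per well) to wells coated with 0.5-2 μg/mL BSA-(Man)3 and blocked with 2% BSA. Compound in 0.2% BSA/D-PBS; binding 40-75 min at room temperature. Washed; bound bacteria read by luciferase luminescence; IC50.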", "units": {"IC50": "nM"}, "values": [
      {"smiles": "Cc1cc(-c2cc(-c3ccc(O[C@H]4O[C@H](CO)[C@@H](O)[C@H](O)[C@]4(C)O)c(C)c3)cc(-c3ccc(O[C@H]4O[C@H](CO)[C@@H](O)[C@H](O)[C@]4(C)O)c(C)c3)c2)ccc1O[C@H]1O[C@H](CO)[C@@H](O)[C@H](O)[C@]1(C)O", "note": "[Example 118, (2R,3S,4S,5S,6R)-2-[4-[3,5-bis[3-methyl-4-[(2R,3S,4S,5S,6R)-3,4,5-trihydroxy-6-(hydroxymethyl)-3-methyl-tetrahydropyran-2-yl]oxy-phenyl]phenyl]-2-methyl-phenoxy]-6-(hydroxymethyl)-3-methyl-tetrahydropyran-3,4,5-triol]", "IC50": "2 ± 0.7"},
      {"smiles": "Cc1cc(-c2cncc(-c3ccc(O[C@H]4O[C@H](CO)[C@@H](O)[C@H](O)[C@]4(C)O)c(C)c3)c2)ccc1O[C@H]1O[C@H](CO)[C@@H](O)[C@H](O)[C@]1(C)O", "note": "[Example 119, (2R,3S,4S,5S,6R)-6-(hydroxymethyl)-3-methyl-2-[2-methyl-4-[5-[3-methyl-4-[(2R,3S,4S,5S,6R)-3,4,5-trihydroxy-6-(hydroxymethyl)-3-methyl-tetrahydropyran-2-yl]oxy-phenyl]-3-pyridyl]phenoxy]tetrahydropyran-3,4,5-triol]", "IC50": "0.6 ± 0.2"},
      {"smiles": "Cc1cc(-c2cccc(-c3ccc(O[C@H]4O[C@H](CO)[C@@H](O)[C@H](O)[C@]4(C)O)c(C)c3)c2)ccc1O[C@H]1O[C@H](CO)[C@@H](O)[C@H](O)[C@]1(C)O", "note": "[Example 120, (2R,3S,4S,5S,6R)-6-(hydroxymethyl)-3-methyl-2-[2-methyl-4-[3-[3-methyl-4-[(2R,3S,4S,5S,6R)-3,4,5-trihydroxy-6-(hydroxymethyl)-3-methyl-tetrahydropyran-2-yl]oxy-phenyl]phenyl]phenoxy]tetrahydro-pyran-3,4,5-triol]", "IC50": "3 ± 2"},
      {"smiles": "Cc1cc(-c2cccc(-c3ccc(O[C@H]4O[C@H](CO)[C@@H](O)[C@H](O)[C@]4(C)O)c(C)c3)n2)ccc1O[C@H]1O[C@H](CO)[C@@H](O)[C@H](O)[C@]1(C)O", "note": "[Example 121, (2R,3S,4S,5S,6R)-6-(hydroxymethyl)-3-methyl-2-[2-methyl-4-[6-[3-methyl-4-[(2R,3S,4S,5S,6R)-3,4,5-trihydroxy-6-(hydroxymethyl)-3-methyl-tetrahydropyran-2-yl]oxy-phenyl]-2-pyridyl]phenoxy]tetrahydropyran-3,4,5-triol]", "IC50": "6 ± 0.8"},
      {"smiles": "Cc1cc(-c2ccnc(-c3ccc(O[C@H]4O[C@H](CO)[C@@H](O)[C@H](O)[C@]4(C)O)c(C)c3)c2)ccc1O[C@H]1O[C@H](CO)[C@@H](O)[C@H](O)[C@]1(C)O", "note": "[Example 122, (2R,3S,4S,5S,6R)-6-(hydroxymethyl)-3-methyl-2-[2-methyl-4-[2-[3-methyl-4-[(2R,3S,4S,5S,6R)-3,4,5-trihydroxy-6-(hydroxymethyl)-3-methyl-tetrahydropyran-2-yl]oxy-phenyl]-4-pyridyl]phenoxy]tetrahydropyran-3,4,5-triol]", "IC50": "0.6 ± 0.3"},
      {"smiles": "Cc1cc(C2CC2c2ccc(O[C@H]3O[C@H](CO)[C@@H](O)[C@H](O)[C@]3(C)O)c(C)c2)ccc1O[C@H]1O[C@H](CO)[C@@H](O)[C@H](O)[C@]1(C)O", "note": "(stereo partly drawn) [Example 123, (2R,3S,4S,5S,6R)-6-(hydroxymethyl)-3-methyl-2-[2-methyl-4-[2-[3-methyl-4-[(2R,3S,4S,5S,6R)-3,4,5-trihydroxy-6-(hydroxymethyl)-3-methyl-tetrahydropyran-2-yl]oxy-phenyl]cyclopropyl]phenoxy]tetrahydropyran-3,4,5-triol]", "IC50": "1 ± 0.5"},
      {"smiles": "OC[C@H]1O[C@@]2(CCc3cc(O)ccc3O2)[C@@H](O)[C@@H](O)[C@@H]1O", "note": "[Example 124, (2R,3′S,4′S,5′S,6′R)-6′-(hydroxymethyl)spiro[chromane-2,2′-tetrahydropyran]-3′,4′,5′,6-tetrol]", "IC50": "650 ± 550"}
    ]}
  ]
}
